Tests used:
[1] = system: H-ras; test: Inhibition of H-ras prenylation/processing in whole cells (H-ras (61 L) transformed NIH3T3 fibroblasts, Western blot); format: cell-based; conditions: for IC50: Mus musculus; for IC50 / H-ras processing, % inhibition @ 50: H-ras (61 L) transformed NIH3T3 fibroblasts, 24 h, 50 μM lovastatin as 100% reference; for H-ras processing, % inhibition @ 50: @ 50 [μM]
Procedure: The ability of compounds of the invention to inhibit H-ras farnesylation was determined. H-ras (61 L) transformed NIH3T3 fibroblasts were generously provided by C. Der, Univ. N. Carolina. These fibroblasts were treated for 24 h with 50 μM lovastatin or vehicle control or the indicated concentrations of inhibitor. Lovastatin is an HMG-CoA reductase inhibitor. HMG-CoA reductase is an essential enzyme in the cellular synthesis of the prenyl groups with which ras proteins are modified. The cells were lysed in 1% NP-40, 5 mM Tris-HCl (pH 8.0), 5 mM EDTA, 0.1 mM N-tosyl-L-phenylalanine chloromethyl ketone, 0.1 mM N-tosyl-L-lysine chloromethyl ketone, and 1 mM phenylmethylsulfonyl fluoride. The lysate was centrifuged (15000×g, 5 min.) and the supernatant was used as a cell extract. Total protein was separated by SDS-PAGE in 15% acrylamide gel. Processed ras can be differentiated from non-processed ras by its mobility in polyacrylamide gels. After transfer to IMMOBILON P™ membrane (Millipore), the blots were probed with LA069 mouse monoclonal antibody to H-ras (Quality Biotech). All Western blots were developed using ECL chemiluminescent reagents (Amersham) and the relative amounts of farnesylated and non-farnesylated ras were quantitated using the inhibition obtained by 50 μM lovastatin as 100% reference.
Sub-micromolar concentrations are sufficient to inhibit farnesylation of ras proteins in whole cells.

[2] = biological target: GGTase I (Homo sapiens, UniProt P49354+P53609); test: In vitro inhibition of GGTase I-mediated prenylation (H-ras (61 L, CAIL), [3H] geranylgeranyl diphosphate); format: biochemical; conditions: 5 μM recombinant H-ras (61 L, CAIL), 1 mM [3H] geranylgeranyl diphosphate
Procedure: (§1) The ability of the disclosed inhibitor compounds to inhibit FTase was measured according to a published prenylation assay (Moores et al., J. Biol Chem. 266:14603 (1991)). Recombinant FTase with 3 μM recombinant H-ras and 440 nM [^3 H] farnesylpyrophosphate were used were used. The inhibitors were diluted in assay buffer, and each assay mixture was incubated 15 min. at 37° C. Where inhibition of GGTase I was measured, GGTase I with 5 μM recombinant, H-ras (61 L, CAIL) and 1 mM [^3 H] geranylgeranyl diphosphate were used.
(§2) Nanomolar concentrations of the indicated compounds were sufficient to inhibit farnesylation of ras proteins in vitro. For screening candidate compounds useful for the treatment of ras-associated tumors, the FTase assay is preferred. […] Substitutions which confer GGTase I specificity as taught herein also produced potent inhibitors of GGTase I.

[3] = biological target: FTase (Homo sapiens, UniProt P49354+P49356); test: In vitro inhibition of FTase-mediated prenylation (recombinant FTase, recombinant H-ras, [3H] farnesylpyrophosphate); format: biochemical; conditions: 15 min, 37° C.; 3 μM recombinant H-ras, 440 nM [3H] farnesylpyrophosphate
Procedure: as §1, §2

[4] = system: H-ras (61 L) transformed NIH3T3 fibroblasts; test: Inhibition of tumor growth of H-ras (61 L) transformed NIH3T3 xenograft in athymic nude mice; format: in vivo; conditions: 100, 50 and 25 mg/kg i.v. daily for 5 days; measured days 7, 10, 14
Procedure: H-ras (61 L) transformed NIH3T3 fibroblasts were grown in Dulbecco's modified Eagle's medium supplemented with 10% heat-inactivated calf serum. 100 U/mL penicillin, 100 μg/mL streptomycin, and 0.75 mg/mL G418 (GIBCO) and incubated at 37° C. in 5% CO2. Cells were harvested from exponential-phase cultures with trypsin-EDTA, centrifuged at 160×g for 5 min, washed once with 10 mL cold Hank's balanced salt solution (HBSS, GIBCO), and resuspended at a concentration of 1×10^6 cells/mL.
Five week old female athymic nude mice were obtained from SLC (3371-8, Kotoummachi, Hamamatsu-shi, Shizuoka 431-11, Japan) and maintained under pathogen-free conditions. The mice were subcutaneously injected in the lateral flank with 1×10^5 H-ras transformed cells/mouse.
Inhibitor compound 1 was suspended in 5% glucose in a total injection volume of 0.2 mL. Three dosage concentrations were prepared, 100, 50 and 25 mg/kg. Compound 1 was intravenously injected daily in the tail vein for 5 consecutive days, starting the day after the implantation (day 0). The control group was injected with vehicle only. Body weight and tumor dimensions were measured at days 7, 10, and 14. Tumor volume was estimated by the following calculation: tumor volume=(0.5)(length×width×width). At day 14, each mouse was euthanized with CO2 (g), and each tumor was excised and weighed. […]

Structure (SMILES) | IC50 [1] | IC50 [2] | IC50 [3] | also measured
COC(=O)[C@H](CCSC)NC(=O)c1cc(OCC[C@@H](C)CS)ccc1C(C)C [Compound 29] | > 50000 nM | – | – | –
COC(=O)[C@H](CCSC)NC(=O)c1cc(OC[C@@H](N)CS)ccc1C(C)C [Compound 25] | 3100 nM | – | – | –
COC(=O)[C@H](CCSC)NC(=O)c1cc(OC[C@@H](N)CS)ccc1-c1ccccc1 [Compound 26] | 3200 nM | – | – | –
CSCC[C@H](NC(=O)c1cc(OC[C@@H](/C=C/[C@@H](N)CS)C(C)C)ccc1C(C)C)C(=O)O [Compound 9] | – | 3800 nM | 22 nM | –
COC(=O)C(CCSC)NC(=O)c1ccccc1OC[C@@H](/C=C/[C@@H](N)CS)C(C)C (stereo partly drawn) [Compound 15] | 4100 nM | – | – | –
COC(=O)[C@H](CCSC)N(C)Cc1cc(OCC[C@@H](N)CS)ccc1C(C)C [Compound 28] | – | – | – | H-ras processing, % inhibition @ 50 [1]: 42%
CSCC[C@H](NC(=O)c1cc2ccccc2cc1OC[C@@H](/C=C/[C@@H](N)CS)C(C)C)C(=O)O [Compound 3] | – | 1700 nM | 500 nM | –
COC(=O)[C@H](CCSC)NC(=O)c1cc2ccccc2cc1OC/C=C/[C@@H](N)CS [Compound 19] | – | – | – | H-ras processing, % inhibition @ 50 [1]: 46%
CSCC[C@H](NC(=O)c1cc(OCC[C@@H](C)CS)ccc1C(C)C)C(=O)O [Compound 32] | – | 100000 nM | 470 nM | –
CSCC[C@H](NC(=O)c1cc(OCC[C@@H](N)CS)ccc1-c1ccccc1)C(=O)O [Compound 12] | – | 38 nM | 4 nM | –
COC(=O)[C@H](CCSC)NC(=O)c1cccc(OC[C@@H](/C=C/[C@@H](N)CS)C(C)C)c1 [Compound 17] | 3300 nM | – | – | –
CSCC[C@H](NC(=O)c1cc(OC[C@@H](N)CS)ccc1-c1ccccc1)C(=O)O [Compound 14] | – | 130 nM | 15 nM | –
COC(=O)[C@H](CCSC)NC(=O)c1cc(COC[C@@H](N)CS)ccc1C(C)C [Compound 27] | 49 nM | – | – | –
COC(=O)[C@H](CCSC)NC(=O)c1ccc(OC/C=C/[C@@H](N)CS)cc1 [Compound 21] | > 50000 nM | – | – | –
CSCC[C@H](NC(=O)c1cccc(OC/C=C/[C@@H](N)CS)c1)C(=O)O [Compound 7] | – | 3000 nM | 93 nM | –
COC(=O)[C@H](CCSC)NC(=O)c1ccc(OC[C@@H](/C=C/[C@@H](N)CS)C(C)C)cc1 [Compound 18] | > 50000 nM | – | – | –
COC(=O)[C@H](CCSC)NC(=O)c1cc(OC[C@@H](/C=C/[C@@H](N)CS)C(C)C)ccc1C(C)C [Compound 22] | 122 nM | – | – | –
COC(=O)C(CCSC)NC(=O)c1cccc(OC/C=C/[C@@H](N)CS)c1 (stereo partly drawn) [Compound 20] | – | – | – | H-ras processing, % inhibition @ 50 [1]: 38%
CSCC[C@@H](C(=O)O)N(C)Cc1cc(OCC[C@@H](N)CS)ccc1C(C)C [Compound 31] | – | 8900 nM | 350 nM | –
CSCC[C@H](NC(=O)c1cccc(OC[C@@H](/C=C/[C@@H](N)CS)C(C)C)c1)C(=O)O [Compound 4] | – | 1900 nM | 30 nM | –
CSCC[C@H](NC(=O)c1cc(OCC[C@@H](N)CS)ccc1C(C)C)C(=O)O [Compound 11] | – | 390 nM | 21 nM | –
CSCC[C@H](NC(=O)c1ccccc1OC[C@@H](/C=C/[C@@H](N)CS)C(C)C)C(=O)O [Compound 2] | – | 1900 nM | 45 nM | –
CSCC[C@H](NC(=O)c1cc(COC[C@@H](N)CS)ccc1C(C)C)C(=O)O [Compound 30] | – | 930 nM | 15 nM | –
CSCC[C@H](NC(=O)c1ccc(OC/C=C/[C@@H](N)CS)cc1)C(=O)O [Compound 8] | – | > 100000 nM | 890 nM | –
COC(=O)[C@H](CCSC)NC(=O)c1cc(OCC[C@@H](N)CS)ccc1C(C)C [Compound 1] | 39 nM | – | – | inhibition of tumor growth / tumor volume (FIG. 1) [4]: inhibition of tumor growth; potency within the series (in words) ([1]; statement in Formulations section, test not specified): the most potent compound of the series
COC(=O)[C@H](CCSC)NC(=O)c1cc(OC[C@@H](/C=C/[C@@H](N)CS)C(C)C)ccc1-c1ccccc1 [Compound 23] | 31000 nM | – | – | –
CSCCC(NC(=O)c1ccc(OC[C@@H](/C=C/[C@@H](N)CS)C(C)C)cc1)C(=O)O (stereo partly drawn) [Compound 5] | – | 40000 nM | 6300 nM | –
CSCC[C@H](NC(=O)c1cc2ccccc2cc1OC/C=C/[C@@H](N)CS)C(=O)O [Compound 6] | – | 4200 nM | 1300 nM | –
COC(=O)[C@H](CCSC)NC(=O)c1cc(OCC[C@@H](N)CS)ccc1-c1ccccc1 [Compound 24] | 298 nM | – | – | –

Reference: patent publication US6265603A, “Inhibitors of isoprenyl transferase” (Eisai Co., Ltd., priority 1999, dated 2001)
